Measurements as given in patent publication US12607637B2, “Super-resolution morphology-correlated detection of labile zinc” (University of Cincinnati, priority 2020, dated 2026).
Several values for one entry are separate records, joined by “and”; a condition that tells them apart may be missing. Identical values can stand only once.

What was measured:
HeLa cells [1] = assay: Photostability in cells under continuous laser stimulation; assay type: cell-based
Procedure: At the same time, because NapBu-BPEA's optical stability is an important factor in super-resolution imaging, a long-term continuous laser (300 s) stimulation of cells was carried out, capturing images every 20 s in order to monitor the photostability of NapBu-BPEA and MTDR in cells (FIG. 4(f), (g)). […] These characteristics enabled NapBu-BPEA to dynamically monitor cellular ultrastructures with long-term super-resolution imaging.

FIP200 KO HeLa cells = assay: SIM imaging of labile Zn^2+ after CCCP in autophagy-deficient cells; assay type: cell-based
Procedure: (§1) Wild-type, FIP200 and ATG13 KO HeLa cell lines were gifted from Dr. Jun-Lin Guan's lab (University of Cincinnati). Cells were cultured in DMEM supplemented 10% FBS and 100 U/mL penicillin-streptomycin (Gibco) in 5% CO2 incubator at 37° C.
(§2) Considering that ATG13 and FIP200 are essential proteins for autophagy, to further elucidate the relationship between autophagy and changes in level of Zn^2+ two stable knockout (KO) cell lines were obtained (ATG13 KO HeLa cells and FIP200 KO HeLa cells) via CRISPR/Cas9 gene editing technology.

ATG13 KO HeLa cells = assay: as above; assay type: cell-based
Procedure: as §1, §2

HeLa cells [2] = assay: SIM imaging of intracellular labile Zn^2+ on ZnPT loading and TPEN scavenging; assay type: cell-based
Procedure: In view of these promising results, a 1:2 mixture of ZnCl2 and pyrithione sodium salt, a cell-permeable Zn^2+ carrier (ZnPT) to transport exogenous Zn^2+ to cells, and a cell-permeable Zn^2+-chelating agent, TPEN, were used to evaluate the reversibility of fluorescence response to Zn^2+ in living cells according to methods described elsewhere. To determine the entry time of exogenous Zn^2+ into cells, NapBu-BPEA was incubated and an initial image was captured, after which 50 μM ZnPT (50 μM ZnCl2/100 μM pyrithione sodium salt) was used to replace the culture medium in dye-free and serum-free DMEM. […] The variance may be attributed to the difference in lipophilicity.
Next, NapBu-BPEA was investigated for its intracellular labile Zn^2+ imaging ability. Imaging experiments were performed in HeLa cells upon exogenous Zn^2+ loading via incubation with zinc pyrithione cmplex (ZnPT), a cell-permeable Zn^2+ carrier.
Intracellular labile Zn^2+ enhancement processes were tracked by recording SIM images every 2 min. […] While not desiring to be bound by theory, it is proposed that the butyl tail of NapBu-BPEA is responsible for the retained multiple organelle accumulation behavior of NapBu-BPEA upon Zn^2+ binding.

HeLa cells [3] = assay: Cell viability determination via WST (LDH release) assay; assay type: cell-based; conditions: 20 μM, 24 h
Procedure: The suspension of HeLa cells diluted with 50 μL DMEM was plated into 96-well plate. The inoculated cells were pre-cultured overnight in 96-well plate and replaced with a new 50 μL DMEM. 50 μL DMEM containing different concentrations of NapBu-BPEA was added and cultured in CO2 incubator at 37° C. for 24 h. After 10 μL lysis buffer was added to the high contrast wells, 30 min was cultured in the CO2 incubator at 37° C. After 100 μL working solution was added to each well, it was cultured for 0.5 h under dark and room temperature. After 50 μL stop solution was added to each well, the absorbance of 490 nm was determined immediately by a microplate reader (Thermomax, Molecular Devices).

[4] = Spectroscopic study: fluorescence quantum yield and pH stability in DMSO/HEPES; assay type: physicochemical; conditions: probe bound to Zn^2+, pH titration
Procedure: (§3) The stock solution of NapBu-BPEA was prepared with DMSO of HPLC pure grade to make the concentration as 10 mM, and frozen after packing at −20° C. The sample solutions were diluted to the final concentration as 10 μM with 3 mL HEPES buffer (50 mM, 100 mM KNO3, 10% DMSO, pH 7.2) in quartz cuvettes with 1 cm path lengths. The fluorescent spectra were recorded upon the excitation of 450 nm.
(§4) The Zn^2+ titration spectra were recorded by adding in aliquots Zn^2+ solution from 0 to 15 μM into the NapBu-BPEA solution (10 μM). The detection limit of NapBu-BPEA was determined by collecting the fluorescence spectra of NapBu-BPEA for 6 times to obtain the background noise (a). The probe's fluorescent sensing selectivity of NapBu-BPEA was recorded after adding metal cation (1000 eq K^+, Na^+, Ca^2+, Mg^2+; 1 eq Cd^2+, Ni^2+, Cr^3+, Pb^2+, Al^3+, Co^2+, Fe^2+, Fe^3+, Ba^2+, Mn^2+) to the NapBu-BPEA solution. The fluorescence quantum yields were determined by using Ru(bpy)3^2+ (Φ=0.04) in DMSO/HEPES (v:v, 1:9)(λex=450 nm) as the reference. To determine binding constant, various amounts of Zn(NO3)2 (0˜9 mM) were added to NapBu-BPEA solution buffered with DMSO/HEPES (50 mM, pH 7.21, 100 mM KNO3) containing 10 mM EGTA. The pH stability was measured by recording the fluorescence spectra of NapBu-BPEA solution in the presence of Zn^2+ at different pH adjusted with KOH and HCl.

HeLa cells [5] = assay: SIM imaging of labile Zn^2+ during CCCP- or EBSS-induced autophagy; assay type: cell-based
Excerpt: The SIM images were acquired using a Nikon N-SIM system. The blue imaging channel for Hoechst 33258 with emission bandwidth at 420-495 nm upon excitation at 405 nm, the green imaging channel for NapBu-BPEA with emission bandwidth at 500-550 nm upon excitation at 488 nm, the red imaging channel for ER-Tracker Red, LysoTracker Red and DAPRed with emission bandwidth at 570-640 nm upon excitation at 561 nm, the magenta imaging channel for MitoTracker Deep Red with emission bandwidth at 660-735 nm upon excitation at 640 nm were utilized. The imaging data analysis and thermal map construction were performed via analysis with ImageJ.
The intracellular Zn^2+ level in autophagy was imaged in HeLa cells. Prior to CCCP (10 μM, 24 h) or EBSS treatment ([…]), the cells were stained with DAPRed (1 μM, 30 min). The cells were finally stained by NapBu-BPEA (10 μM, 1 h) before SIM imaging.

[6] = Zn^2+ fluorescence titration, Job's plot, detection limit, binding constant, metal ion selectivity and TPEN reversibility in HEPES/DMSO
Procedure: as §3, §4

[7] = CCCP treatment, regions selected by morphology

Row | photobleaching (HeLa cells [1]; within 300 s of laser stimulation) | pH range of stable fluorescence response [4] | limit of detection for Zn^2+ ([6]; 3 σ/slope method) [nM] | Kd ([6]; HEPES 50 mM, 100 mM KNO3, 10% DMSO, 10 mM EGTA, pH 7.21, read-out: dissociation constant (Kd) of the complex between Zn^2+ and NapBu-BPEA) [nM] | reversibility of fluorescence response on TPEN addition ([6]; Zn^2+ 10 μM then TPEN 10 μM, five on-off cycles) | emission enhancement on Zn^2+ titration ([6]; at 540 nm, 10 μM probe) [fold] | SMILES | fluorescence intensity remaining (HeLa cells [1]; after 120 s of laser stimulation) | fluorescence intensity, CCCP-treated versus untreated (FIP200 KO HeLa cells) | fluorescence intensity, CCCP-treated versus untreated (ATG13 KO HeLa cells) | time until fluorescence intensity is balanced/stable after exogenous Zn^2+ (HeLa cells [2]; 50 μM ZnPT, images every 2 min) | reversibility of intracellular response (HeLa cells [2]; 100 μM TPEN added to cells) | activity of lactate dehydrogenase released into the medium (HeLa cells [3]) | cell viability (HeLa cells [3]) | green fluorescence intensity in mitophagic versus non-autophagic cells (HeLa cells [5]; CCCP 10 μM, 24 h, probe 10 μM, 1 h) [fold] | increase of Zn^2+ level (fluorescence intensity) in endoplasmic reticulum during autophagy (HeLa cells [5]; [7]) [fold] | increase of Zn^2+ level (fluorescence intensity) in mitochondria during autophagy (HeLa cells [5]; [7]) [fold] | fluorescence signal of CCCP-treated versus untreated cells (HeLa cells [5]; CCCP-induced mitophagy) | fluorescence intensity of EBSS-treated cells (HeLa cells [5]; EBSS starvation 24 h) | fluorescence selectivity against other metal ions ([6]; 1000 eq K+, Na+, Ca2+, Mg2+, 1 eq other cations, response only to Cd^2+)
1 |  |  |  |  |  |  | C[N+]1=C(/C=C/C=C/C=C2\N(Cc3ccc(CCl)cc3)c3ccccc3C2(C)C)C(C)(C)c2ccccc21.[Cl-] [MTDR, reference compound] | less than 30% |  |  |  |  |  |  |  |  |  |  |  | 
2 | negligible photobleaching | 4-8 pH | 54.5 | 4.98 | favorable reversible response to Zn^2+ | 3.6 | CCCCN1C(=O)c2cccc3c(NCCN(Cc4ccccn4)Cc4ccccn4)ccc(c23)C1=O [NapBu-BPEA, 2,4-(bis(pyridin-2-ylmethyl)aminoethyl)amino-N-n-butyl-1,8-naphthalimide] |  | no significant change in fluorescence intensity | no significant change in fluorescence intensity | 6 min and 4 min | respond reversibly to intracellular Zn^2+ | less than 20% | exceeded 80% | ~2.0 | 1.55 | 1.89 | improved significantly | decreased | specific fluorescence selectivity for Zn^2+
